# Assay results from patent US20080292584A1 (priority 2005, published 2008).
# “And” between values parts separate entries of the source, which are not always exact repeats. Equal values may be shown once. Read-outs that look alike come from different tables or passages of the source.
# What was measured:
# [1] = target: T1, CYP2C8 (Homo sapiens, UniProt P10632); assay: Inhibition of CYP2C8 activity in pooled human liver microsomes (paclitaxel 5 μM to 6-hydroxy paclitaxel); format: in vitro ADME
# T1 sequence (P10632 1-490): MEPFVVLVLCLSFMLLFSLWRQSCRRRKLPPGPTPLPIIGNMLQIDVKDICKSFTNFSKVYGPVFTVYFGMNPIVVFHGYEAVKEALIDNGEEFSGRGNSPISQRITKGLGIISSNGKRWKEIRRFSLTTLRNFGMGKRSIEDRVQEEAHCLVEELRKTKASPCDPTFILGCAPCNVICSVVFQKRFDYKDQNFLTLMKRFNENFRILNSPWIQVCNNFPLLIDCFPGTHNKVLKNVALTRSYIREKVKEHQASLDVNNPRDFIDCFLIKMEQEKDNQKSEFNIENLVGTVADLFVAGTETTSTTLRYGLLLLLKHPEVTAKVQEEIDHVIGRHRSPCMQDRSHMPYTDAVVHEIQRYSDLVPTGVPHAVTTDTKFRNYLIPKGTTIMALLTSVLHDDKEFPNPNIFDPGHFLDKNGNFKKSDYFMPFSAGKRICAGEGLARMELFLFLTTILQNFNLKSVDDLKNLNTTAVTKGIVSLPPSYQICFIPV
# Method: All other incubations were for 30 minutes.
# Four replicates were performed.
# Two replicates were performed.
# [2] = test system: CYP1A2; assay: Induction/inhibition of CYP1A2 activity in cryopreserved human hepatocytes after 48 h exposure (phenacetin)
# Excerpt: Hepatocytes from three human donors were obtained from a cryopreserved hepatocyte bank (In Vitro Technologies, Inc., USA). After thawing, viable hepatocytes were transferred to collagen-coated 48-well plates for attachment in plating medium (DMEM stock (Dulbecco's modified Eagle's medium, supplemented with bovine serum albumin, fructose, N-(2-hydroxyethyl)piperazine-N′-(2-ethanesulfonate) (HEPES), and sodium bicarbonate), supplemented with antibiotics, bovine serum, hydrocortisone, insulin and minimum essential medium (MEM) nonessential amino acids). After attachment to the collagen matrix, plating medium was replaced with sandwich medium (plating medium supplemented with VITROGEN) and incubated until use.
# The supplemented KHB was replaced with 150 μL supplemented KHB containing the appropriate isoform-selective substrate and incubated for 4 hrs prior to termination by adding 150 μL ice-cold methanol, except for the CYP2C8 incubations which were terminated by adding 150 μL acetonitrile.
# All substrates were dissolved in acetonitrile.
# Replicate trials and controls were performed. […] Additionally, reference control samples were included to evaluate inducibility of CYP2B6, CYP2C9, and CYP2C19 in the test system.
# Mean specific activity values with associated p-values≦0.05 were deemed to be statistically significant.
# [3] = target: T1, CYP2C8; details: both, pH 7.4; for Mean Conc.: 60 min; for % Turnover Mean: microsomes, 1 h
# Method: (§1) Human liver microsomes pooled from 15 individuals (male and female) (Pool HMMC-PL020; CellzDirect, Inc., In Vitro Products and Services Division) were used in some experiments of this study.
# (§2) % Turnover=100−{[TA(final)]/[mean of TA(0 min)]}×100,
# (§3) % Inhibition of Turnover=100{1−([TA(0 min)]−[TA(final-inhibitor)])/([TA(0 min)]−[TA(final-no inhibitor)])}.
# (§4) The inhibitors or vehicle control were incubated with the pooled human liver microsomes (1 mg/mL) and NADPH (1 mM) in 0.1 M phosphate buffer, pH 7.4. […] Incubations were conducted in triplicate and terminated by addition of organic solvent. Samples were extracted and analyzed by LC-MS/MS as described above.
# [4] = target: CYP2C9 (Homo sapiens, UniProt P11712); details: 1 mg/mL HLM, 60 min, with sulfaphenazole; for % Turnover / % inhibition of turnover / Conc.: single replicates
# Method: as §1, §2, §3, §4
# [5] = target: T2, CYP2D6 (Homo sapiens, UniProt P10635); details: both, pH 7.4; for Mean Conc.: 60 min; for % Turnover Mean: microsomes, 1 h
# Method: as §1, §2, §3, §4
# [6] = 400 mg oral dosage form; humans; cited from earlier work
# [7] = target: CYP2C19 (Homo sapiens, UniProt P33261); assay: in vitro; details: pooled human liver microsomes, probe S-mephenytoin 50 μM (to 4′-hydroxy mephenytoin);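 also: CYP2C19 incubations ran for 30 minutes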
# Method: Microsomes were prepared by differential centrifugation of liver homogenates pooled from at least ten human donors.
# After a 5 minute preincubation, NADPH regenerating system (NRS) was added to initiate the reaction. CYP2A6 and CYP3A4 incubations were for 10 minutes. All other incubations were for 30 minutes.
# Incubations for CYP2C8 were terminated by adding 1.0 mL of ACN, while all other incubations were terminated by adding 1.0 mL of methanol.
# Vehicle control experiments were performed to establish a baseline value for enzyme activity. […] Four replicates were performed.
# Two replicates were performed. […] No interference was detected in any of the metabolite assay methods used.
# [8] = target: T2, CYP2D6; assay: Metabolism of metaxalone by expressed recombinant human CYP2D6 (Example 1); details: 30 min;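 also: reactions in 0.5 mL were started by adding an NADPH regenerating system after 5 min preincubation, with background signal estimated from controls containing only matrix components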
# Method: Commercially available microsomes from baculovirus-infected insect cells containing singly-expressed recombinant wild-type (*1 allele) human CYP enzymes and cDNA-expressed human cytochrome p450 oxidoreductase [BD SUPERSOMES Enzymes; BD Biosciences Discovery Labware (Woburn, Mass.)] were used.
# After a 5-minute pre-incubation, an NADPH regenerating system (NRS) was added to the incubation mixtures to initiate reactions, with a final incubation volume of 0.5 mL. Incubations were continued for 30 minutes, and then terminated, except for those for CYP2C19, which were incubated for 36 minutes prior to termination.
# Matrix controls were performed to determine the background signal from the matrix components (microsomes (10 pmol p450), 01N Tris buffer, NRS, and 1% methanol). […] After a 5-minute pre-incubation, 2% sodium bicarbonate solution was added to the incubation mixtures. Incubation was for 30 minutes at a final volume of 0.5 mL. Matrix and metabolic negative controls were terminated by adding an equal volume of methanol. […] Analysis of samples was subsequent to storage at −70° C.
# [9] = target: T1, CYP2C8; assay: Metabolism of metaxalone by expressed recombinant human CYP2C8 at 5 or 20 pmol (Example 4); details: for % Turnover Mean / [metaxalone] Mean / % Turnover % / [metaxalone]: 60 min; for % Turnover % / [metaxalone]: single replicates
# [10] = target: T2, CYP2D6; assay: Chemical inhibition of metaxalone turnover in human liver microsomes, CYP2D6 inhibitor quinidine; details: 7.5 μM metaxalone; 1 mg/mL HLM; 60 min; with quinidine; single replicates
# Method: as §1, §2, §3, §4
# [11] = CYP isozyme 2C8, summary of studies
# [12] = 0.75 μM metaxalone, 5 pmol cyp, listed as Metaxalone
# [13] = 0.75 μM metaxalone, 20 pmol cyp
# [14] = 0.75 μM metaxalone, 20 pmol cyp, listed as Metaxalone
# [15] = 7.5 μM metaxalone, 5 pmol cyp, listed as Metaxalone
# [16] = 7.5 μM metaxalone, 20 pmol cyp, listed as Metaxalone
# T2 sequence (P10635 whole entry): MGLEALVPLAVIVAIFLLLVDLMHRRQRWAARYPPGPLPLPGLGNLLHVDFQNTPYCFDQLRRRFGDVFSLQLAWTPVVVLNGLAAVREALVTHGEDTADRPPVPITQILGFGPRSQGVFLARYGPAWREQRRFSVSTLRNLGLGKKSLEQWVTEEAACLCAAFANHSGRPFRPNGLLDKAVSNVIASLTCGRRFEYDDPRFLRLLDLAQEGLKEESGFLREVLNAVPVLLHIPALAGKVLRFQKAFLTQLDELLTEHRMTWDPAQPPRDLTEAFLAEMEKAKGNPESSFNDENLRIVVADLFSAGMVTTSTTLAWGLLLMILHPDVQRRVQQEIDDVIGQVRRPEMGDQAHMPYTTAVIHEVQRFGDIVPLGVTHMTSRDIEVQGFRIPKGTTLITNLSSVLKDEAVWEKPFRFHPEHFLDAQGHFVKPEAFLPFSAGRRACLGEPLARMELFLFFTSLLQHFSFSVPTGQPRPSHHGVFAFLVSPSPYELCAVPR
# CYP2C9, sequence (P11712 whole entry): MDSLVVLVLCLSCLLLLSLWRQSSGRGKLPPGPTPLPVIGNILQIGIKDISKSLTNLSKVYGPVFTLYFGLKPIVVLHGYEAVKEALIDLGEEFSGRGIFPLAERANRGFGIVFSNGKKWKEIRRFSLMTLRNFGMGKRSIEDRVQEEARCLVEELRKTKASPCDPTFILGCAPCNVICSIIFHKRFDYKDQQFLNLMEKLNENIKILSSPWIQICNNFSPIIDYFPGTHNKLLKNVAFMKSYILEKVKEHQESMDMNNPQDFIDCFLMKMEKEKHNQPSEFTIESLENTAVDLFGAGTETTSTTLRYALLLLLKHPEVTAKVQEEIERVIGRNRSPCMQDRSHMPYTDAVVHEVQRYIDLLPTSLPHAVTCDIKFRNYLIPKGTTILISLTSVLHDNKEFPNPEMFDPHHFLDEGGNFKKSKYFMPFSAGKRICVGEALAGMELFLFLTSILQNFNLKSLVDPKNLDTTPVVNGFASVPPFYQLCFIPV
# CYP2C19, sequence (P33261 whole entry): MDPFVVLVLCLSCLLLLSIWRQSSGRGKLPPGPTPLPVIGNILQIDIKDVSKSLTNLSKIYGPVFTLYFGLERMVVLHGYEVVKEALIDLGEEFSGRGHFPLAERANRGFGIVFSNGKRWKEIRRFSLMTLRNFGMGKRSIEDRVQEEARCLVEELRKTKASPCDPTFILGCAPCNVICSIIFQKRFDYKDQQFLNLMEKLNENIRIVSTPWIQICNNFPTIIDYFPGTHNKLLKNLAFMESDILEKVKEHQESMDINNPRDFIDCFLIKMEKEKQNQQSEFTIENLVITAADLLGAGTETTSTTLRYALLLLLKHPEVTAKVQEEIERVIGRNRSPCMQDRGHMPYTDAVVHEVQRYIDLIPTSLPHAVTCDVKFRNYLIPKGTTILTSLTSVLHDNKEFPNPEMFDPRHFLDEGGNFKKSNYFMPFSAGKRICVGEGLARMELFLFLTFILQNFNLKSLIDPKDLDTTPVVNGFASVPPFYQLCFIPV
compound,measurement,setting,value
"Cc1cc(C)cc(OCC2CNC(=O)O2)c1 (centres unmarked) [metaxalone, 5-[(3,5-dimethylphenoxy)methyl]-2-oxazolidinone]",inhibition of CYP activity at a statistically significant level,[1]; 0.3-100 μM metaxalone,no tested concentration of metaxalone inhibited activity
same,Inhibitor,[1]; [11],0
same,Percent of VC,[1]; metaxalone 0.3 μM,92.7%
same,Specific Activity Individual,[1]; metaxalone 0.3 μM,19.3 pmol/min/mg protein and 15.2 pmol/min/mg protein and 16.1 pmol/min/mg protein
same,Specific Activity Mean ± SD,[1]; metaxalone 0.3 μM,16.8 ± 2.18 pmol/min/mg protein
same,Percent of VC,[1]; metaxalone 1 μM,103%
same,Specific Activity Individual,[1]; metaxalone 1 μM,18.6 pmol/min/mg protein and 18.3 pmol/min/mg protein and 19.1 pmol/min/mg protein
same,Specific Activity Mean ± SD,[1]; metaxalone 1 μM,18.7 ± 0.406 pmol/min/mg protein
same,Percent of VC,[1]; metaxalone 3 μM,109%
same,Specific Activity Individual,[1]; metaxalone 3 μM,20.0 pmol/min/mg protein and 19.9 pmol/min/mg protein and 19.6 pmol/min/mg protein
same,Specific Activity Mean ± SD,[1]; metaxalone 3 μM,19.9 ± 0.232 pmol/min/mg protein
same,Percent of VC,[1]; metaxalone 30 μM,101%
same,Specific Activity Individual,[1]; metaxalone 30 μM,19.9 pmol/min/mg protein and 18.3 pmol/min/mg protein and 16.9 pmol/min/mg protein
same,Specific Activity Mean ± SD,[1]; metaxalone 30 μM,18.4 ± 1.52 pmol/min/mg protein
same,Percent of VC,[1]; metaxalone 100 μM,97.8%
same,Specific Activity Individual,[1]; metaxalone 100 μM,17.6 pmol/min/mg protein and 20.6 pmol/min/mg protein and 15.1 pmol/min/mg protein
same,Specific Activity Mean ± SD,[1]; metaxalone 100 μM,17.8 ± 2.76 pmol/min/mg protein
same,Inducer/Inhibitor,[2],+
same,Percent of VC,"[2]; Donor 2, Metaxalone 40 μM",197%
same,Acetaminophen formation Adjusted Mean ± SD,"[2]; human, 4 h, 40 μM",0.0589 ± 0.00795 µM
same,Acetaminophen formation Adjusted Mean ± SD,"[2]; human, 48 h, 4 μM",0.0443 ± 0.000214 µM
same,effect on CYP1A2 activity,"[2]; human, hepatocytes, 48 h, 40 μM",induced CYP1A2 activity
same,Mean Conc.,[3]; 0.75 μM,0.719 µM
same,Mean Conc.,[3]; 7.5 μM,8.19 µM
same,% Turnover Mean,[3]; 0.75 μM,6.78%
same,% Turnover Mean,[3]; 7.5 μM,3.77%
same,% Turnover Mean,[4]; 0.75 μM metaxalone,5.53%
same,% inhibition of turnover Mean,[4]; 0.75 μM metaxalone,81.4%
same,Mean Conc.,[4]; 0.75 μM metaxalone,0.729 µM
same,% Turnover,[4]; 0.75 μM metaxalone,5.4% and 5.6% (2×)
same,% inhibition of turnover,[4]; 0.75 μM metaxalone,81.9% and 81.3%
same,Conc.,[4]; 0.75 μM metaxalone,0.730 µM
same,% Turnover Mean,[4]; 7.5 μM metaxalone,11.6%
same,% inhibition of turnover Mean,[4]; 7.5 μM metaxalone,52.8%
same,Mean Conc.,[4]; 7.5 μM metaxalone,7.52 µM
same,% Turnover,[4]; 7.5 μM metaxalone,10.2% and 12.6%
same,% inhibition of turnover,[4]; 7.5 μM metaxalone,51.0% and 58.5% and 48.8%
same,Conc.,[4]; 7.5 μM metaxalone,7.49 µM and 7.65 µM and 7.44 µM
same,Mean Conc.,[5]; 0.75 μM,0.769 µM
same,Mean Conc.,[5]; 7.5 μM,7.66 µM
same,% Turnover Mean,[5]; 0.75 μM,0.376%
same,% Turnover Mean,[5]; 7.5 μM,10.0%
same,observed increase of extent of absorption (AUC0-inf) with food relative to fasted treatment,[6],115.4%
same,observed increase of extent of absorption (AUC0-t) with food relative to fasted treatment,[6],123.5%
same,observed increase of peak plasma concentration (Cmax) with food relative to fasted treatment,[6],177.5%
same,"inhibition at 30 min, 100 μM",[7],35.1%
same,Metaxalone Present Adjusted Individual,[8]; metaxalone 0.5 μM,0.374 µM and 0.297 µM and 0.286 µM
same,Metaxalone Present Adjusted Mean ± SD,[8]; metaxalone 0.5 μM,0.319 ± 0.0477 µM
same,Metaxalone Present Raw,[8]; metaxalone 0.5 μM,0.1868 µM and 0.1486 µM and 0.1431 µM
same,Percent of Metabolic Negative Control Individual,[8]; metaxalone 0.5 μM,128% and 102% and 98.0%
same,Percent of Metabolic Negative Control Mean ± SD,[8]; metaxalone 0.5 μM,109 ± 16.3%
same,Metaxalone Present Adjusted Individual,[8]; metaxalone 2.5 μM,1.52 µM and 1.54 µM and 1.53 µM
same,Metaxalone Present Adjusted Mean ± SD,[8]; metaxalone 2.5 μM,1.53 ± 0.0111 µM
same,Metaxalone Present Raw,[8]; metaxalone 2.5 μM,0.7583 µM and 0.7685 µM and 0.767 µM
same,Percent of Metabolic Negative Control Individual,[8]; metaxalone 2.5 μM,96.9% and 98.2% and 98.0%
same,Percent of Metabolic Negative Control Mean ± SD,[8]; metaxalone 2.5 μM,97.7 ± 0.707%
same,Metaxalone Present Adjusted Individual,[8]; metaxalone 25 μM,19.1 µM and 19.7 µM and 18.9 µM
same,Metaxalone Present Adjusted Mean ± SD,[8]; metaxalone 25 μM,19.2 ± 0.436 µM
same,Metaxalone Present Raw,[8]; metaxalone 25 μM,9.526 µM and 9.845 µM and 9.429 µM
same,Percent of Metabolic Negative Control Individual,[8]; metaxalone 25 μM,99.2% and 103% and 98.2%
same,Percent of Metabolic Negative Control Mean ± SD,[8]; metaxalone 25 μM,99.9 ± 2.27%
same,% Turnover Mean,"[9]; 0.75 μM metaxalone, 5 pmol cyp",−9.3%
same,[metaxalone] Mean,"[9]; 0.75 μM metaxalone, 5 pmol cyp",0.865 µM
same,% Turnover %,[9]; [12],−2.6% and −10.9% and −14.3%
same,[metaxalone],[9]; [12],0.812 µM and 0.877 µM and 0.905 µM
same,% Turnover Mean,[9]; [13],2.9%
same,[metaxalone] Mean,[9]; [13],0.768 µM
same,% Turnover %,[9]; [14],0.19% and 6.1% and 2.5%
same,[metaxalone],[9]; [14],0.790 µM and 0.743 µM and 0.771 µM
same,% Turnover Mean,"[9]; 7.5 μM metaxalone, 5 pmol cyp",3.0%
same,[metaxalone] Mean,"[9]; 7.5 μM metaxalone, 5 pmol cyp",8.20 µM
same,% Turnover %,"[9]; 7.5 μM metaxalone, 5 pmol cyp",−1.6%
same,% Turnover %,[9]; [15],0.21%
same,[metaxalone],[9]; [15],7.58 µM and 8.43 µM and 8.58 µM
same,% Turnover Mean,"[9]; 7.5 μM metaxalone, 20 pmol cyp",9.3%
same,[metaxalone] Mean,"[9]; 7.5 μM metaxalone, 20 pmol cyp",7.66 µM
same,% Turnover %,[9]; [16],4.3% and 10.2% and 13.4%
same,[metaxalone],[9]; [16],8.09 µM and 7.59 µM and 7.31 µM
same,Substrate,[9]; [11],+
same,% Turnover,[10],11.1%
